Source: patent US11412737B2, “Mixtures of beflubutamid or optically enriched forms thereof with a second herbicide” (FMC Corporation, priority 2016, dated 2022)

Key:
[1] = test system: Common lambsquarters (CHEAL); assay: pre-emergence test, weed control; format: in vivo, Chenopodium album; conditions: pre-emergent; for percentage of weed control, CHEAL: 28 DAT, (+)-BFL >95% e.e., rate g ai/ha by row: r6 62.5, r7 125, r8 62.5, r9 125, r10 222, r11 445, r12 22.5, r13 45, r14 62.5+62.5, r15 125+62.5, r16 62.5+125, r17 125+125, r18 62.5+222, r19 125+222, r20 62.5+445, r21 125+445, r22 62.5+22.5, r23 125+22.5, r24 62.5+45, r25 125+45
Protocol: (§1) Test compositions containing the test compounds were diluted with water to provide the appropriate test rate concentrations.
(§2) For pre-emergence testing, four disposable fiber flats (6 inch by 10 inch) for each rate of application of each herbicide solution were filled with top soil, to which seeds of each species were planted in furrows made by a template pressed on the top of the soil. The furrows were covered with soil after planting the seed and were watered well before application of the test compounds.
(§3) Fiber flats designated for treatment were placed in a spray chamber having a static platform and a movable sprayer and the height of the spray nozzle was 10.5 inches above the soil level. Once the sprayer was calibrated using water for spray volume of 30 gallons per acre, flats were sprayed with sprayer at a speed to receive a coverage equivalent of 30 gallons per acre. The application rates are those shown in the Tables below for the individual herbicidal solutions and the herbicide compositions of this invention. The pre-emergence flats were immediately placed in the greenhouse and watered lightly after treatment. Thereafter they were regularly watered and fertilized for the duration of the test.
(§4) The control of weeds was evaluated in each experimental test at 21 for wheat and 28 days after treatment (DAT) for all species. Data were analyzed using Minitab software at 95% confidence interval. The results, shown as an average of the replications, were compared with results observed in untreated control flats in the same tests. Percent control was determined by a method similar to the 0 to 100 rating system disclosed in “Research Methods in Weed Science,” 2nd ed., B. Truelove, Ed.; Southern Weed Science Society; Auburn University, Auburn, Ala., 1977. The rating system is as follows in Table 1.

[2] = test system: Wild oat (AVEFA); assay: pre-emergence test, weed control; format: in vivo, Avena fatua; conditions: pre-emergent, 28 DAT
Protocol: as §1, §2, §3, §4

[3] = test system: Italian ryegrass (LOLMU); assay: pre-emergence test, weed control; format: in vivo, Lolium perenne. multiflorum; conditions: pre-emergent, 28 DAT, (+)-BFL >95% e.e.; rate g ai/ha by row: r6 62.5, r7 125, r8 62.5, r9 125, r10 222, r11 445, r12 22.5, r13 45, r14 62.5+62.5, r15 125+62.5, r16 62.5+125, r17 125+125, r18 62.5+222, r19 125+222, r20 62.5+445, r21 125+445, r22 62.5+22.5, r23 125+22.5, r24 62.5+45, r25 125+45
Protocol: as §1, §2
(§5) Fiber flats designated for treatment were placed in a spray chamber having a static platform and a movable sprayer and the height of the spray nozzle was 10.5 inches above the soil level. Once the sprayer was calibrated using water for spray volume of 30 gallons per acre, flats were sprayed with sprayer at a speed to receive a coverage equivalent of 30 gallons per acre. […]
(§6) The control of weeds was evaluated in each experimental test at 21 for wheat and 28 days after treatment (DAT) for all species. Data were analyzed using Minitab software at 95% confidence interval. […] Percent control was determined by a method similar to the 0 to 100 rating system disclosed in “Research Methods in Weed Science,” 2nd ed., B. Truelove, Ed.; Southern Weed Science Society; Auburn University, Auburn, Ala., 1977. […]

[4] = test system: Yellow foxtail (SETLU); assay: pre-emergence test, weed control; format: in vivo; conditions: pre-emergent, 28 DAT
Protocol: as §1, §2, §3, §4

[5] = test system: Blackgrass (ALOMY); assay: pre-emergence test, weed control; format: in vivo; conditions: pre-emergent, 28 DAT
Protocol: as §1, §2, §3, §4

[6] = test system: Green foxtail (SETVI); assay: pre-emergence test, weed control; format: in vivo, Setaria viridis; conditions: pre-emergent, 28 DAT
Protocol: as §1, §2, §3, §4

[7] = test system: Common chickweed (STEME); assay: post-emergence test, weed control; format: in vivo, Stellaria media; conditions: post-emergent, 28 DAT; BFL at 187.5 g, PYX at 45 g, combination of both
Protocol: as §1
For post-emergence testing, seeds of each species for each rate of application of each herbicide solution were planted in 7.5 cm×7.5 cm plastic pots filled with potting soil. The seeds were germinated and the resulting plants were allowed to grow in a greenhouse until they reached a growth stage, such as height, suitable for testing. […] Pots of post-emergent treated plants were returned to the greenhouse and not watered for 24 hours after treatment. Thereafter they were regularly watered and fertilized for the duration of the test.
The control of weeds was evaluated in each experimental test at 21 for wheat and 28 days after treatment (DAT) for all species. […] The rating system is as follows in Table 1.

[8] = test system: Green foxtail (SETVI); assay: post-emergence test, weed control; format: in vivo, Setaria viridis; conditions: post-emergent, 28 DAT; BFL at 187.5 g, PYX at 90 g, combination of both
Protocol: as §1
(§7) For post-emergence testing, seeds of each species for each rate of application of each herbicide solution were planted in 7.5 cm×7.5 cm plastic pots filled with potting soil. The seeds were germinated and the resulting plants were allowed to grow in a greenhouse until they reached a growth stage, such as height, suitable for testing. Treatments were applied using compressed air in a track spray chamber at 30 gallons/acre (280 L/ha) using a TeeJet 8001E nozzle at 40 psi (2.76 bars). Pots of post-emergent treated plants were returned to the greenhouse and not watered for 24 hours after treatment. Thereafter they were regularly watered and fertilized for the duration of the test.
as §4

[9] = test system: Jimsonweed (DATST); assay: pre-emergence test, weed control; format: in vivo, Datura stramonium; conditions: pre-emergent, 28 DAT; BFL at 187.5 g, PYX at 90 g, combination of both
Protocol: as §1, §2, §3, §4

[10] = test system: Redrice (ORYSA); assay: post-emergence test, weed control; format: in vivo; conditions: post-emergent, 28 DAT; BFL at 187.5 g, PYX at 90 g, combination of both
Protocol: as §1, §7, §4

[11] = test system: Cheat grass (BROSE); assay: pre-emergence test, weed control; format: in vivo; conditions: pre-emergent, 28 DAT, (+)-BFL >95% e.e.; rate g ai/ha by row: r6 62.5, r7 125, r8 62.5, r9 125, r10 222, r11 445, r12 22.5, r13 45, r14 62.5+62.5, r15 125+62.5, r16 62.5+125, r17 125+125, r18 62.5+222, r19 125+222, r20 62.5+445, r21 125+445, r22 62.5+22.5, r23 125+22.5, r24 62.5+45, r25 125+45
Protocol: as §1, §2, §3, §4

[12] = test system: Hemp sesbania (SEHE8); assay: pre-emergence test, weed control; format: in vivo; conditions: pre-emergent, 28 DAT; BFL at 187.5 g, PYX at 90 g, combination of both
Protocol: as §1, §2, §3, §4

[13] = test system: Common chickweed (STEME); assay: pre-emergence test, weed control; format: in vivo, Stellaria media; conditions: pre-emergent, 28 DAT; BFL at 187.5 g, PYX at 90 g, combination of both
Protocol: as §1, §2, §5, §6

[14] = test system: Palmer amaranth (AMAPA); assay: pre-emergence test, weed control; format: in vivo, Amaranthus palmeri; conditions: pre-emergent, 28 DAT, (−)-BFL >95% e.e.; rate g ai/ha by row: r6 62, r7 125, r8 125, r9 250, r10 445, r11 890, r12 45, r13 90, r14 62+125, r15 125+125, r16 62+250, r17 125+250, r18 62+445, r19 125+445, r20 62+890, r21 125+890, r22 62+45, r23 125+45, r24 62+90, r25 125+90
Protocol: as §1, §2, §3, §4

[15] = test system: Wild oat (AVEFA); assay: post-emergence test, weed control; format: in vivo, Avena fatua; conditions: post-emergent, 28 DAT; BFL at 187.5 g, PYX at 90 g, combination of both
Protocol: as §1, §7, §4

[16] = (+)-BFL >95% e.e., rate g ai/ha by row: r6 62.5, r7 125, r8 62.5, r9 125, r10 222, r11 445, r12 22.5, r13 45, r14 62.5+62.5, r15 125+62.5, r16 62.5+125, r17 125+125, r18 62.5+222, r19 125+222, r20 62.5+445, r21 125+445, r22 62.5+22.5, r23 125+22.5, r24 62.5+45, r25 125+45, 62.5 g ai/ha
[17] = (+)-BFL >95% e.e., rate g ai/ha by row: r6 62.5, r7 125, r8 62.5, r9 125, r10 222, r11 445, r12 22.5, r13 45, r14 62.5+62.5, r15 125+62.5, r16 62.5+125, r17 125+125, r18 62.5+222, r19 125+222, r20 62.5+445, r21 125+445, r22 62.5+22.5, r23 125+22.5, r24 62.5+45, r25 125+45, 125 g ai/ha
[18] = (+)-BFL >95% e.e., rate g ai/ha by row: r6 62.5, r7 125, r8 62.5, r9 125, r10 222, r11 445, r12 22.5, r13 45, r14 62.5+62.5, r15 125+62.5, r16 62.5+125, r17 125+125, r18 62.5+222, r19 125+222, r20 62.5+445, r21 125+445, r22 62.5+22.5, r23 125+22.5, r24 62.5+45, r25 125+45, 22.5 g ai/ha
[19] = (+)-BFL >95% e.e., rate g ai/ha by row: r6 62.5, r7 125, r8 62.5, r9 125, r10 222, r11 445, r12 22.5, r13 45, r14 62.5+62.5, r15 125+62.5, r16 62.5+125, r17 125+125, r18 62.5+222, r19 125+222, r20 62.5+445, r21 125+445, r22 62.5+22.5, r23 125+22.5, r24 62.5+45, r25 125+45, 45 g ai/ha
[20] = (−)-BFL >95% e.e., rate g ai/ha by row: r6 62, r7 125, r8 125, r9 250, r10 445, r11 890, r12 45, r13 90, r14 62+125, r15 125+125, r16 62+250, r17 125+250, r18 62+445, r19 125+445, r20 62+890, r21 125+890, r22 62+45, r23 125+45, r24 62+90, r25 125+90, 45 g ai/ha
[21] = (−)-BFL >95% e.e., rate g ai/ha by row: r6 62, r7 125, r8 125, r9 250, r10 445, r11 890, r12 45, r13 90, r14 62+125, r15 125+125, r16 62+250, r17 125+250, r18 62+445, r19 125+445, r20 62+890, r21 125+890, r22 62+45, r23 125+45, r24 62+90, r25 125+90, 90 g ai/ha
[22] = (−)-BFL >95% e.e., rate g ai/ha by row: r6 62, r7 125, r8 125, r9 250, r10 445, r11 890, r12 45, r13 90, r14 62+125, r15 125+125, r16 62+250, r17 125+250, r18 62+445, r19 125+445, r20 62+890, r21 125+890, r22 62+45, r23 125+45, r24 62+90, r25 125+90

CC[C@@H](Oc1ccc(F)c(C(F)(F)F)c1)C(=O)NCc1ccccc1 [(+)-BFL]
weed control of common lambsquarters (CHEAL) ([1]; applied alone, 28 DAT (Table 17)): low level weed control
percentage of weed control, CHEAL [1]: 37%
percentage of weed control, AVEFA [2, 16]: 0%
percentage of weed control, AVEFA [2, 17]: 1%
percentage of weed control, LOLMU [3]: 1%
percentage of weed control, SETLU [4, 16]: 0%
percentage of weed control, SETLU [4, 17]: 5%
percentage of weed control, ALOMY [5, 16]: 2%
percentage of weed control, ALOMY [5, 17]: 5%
percentage of weed control, SETVI [6, 16]: 7%
percentage of weed control, SETVI [6, 17]: 8%

Cn1nc(C(F)(F)F)c(CS(=O)(=O)C2=NOC(C)(C)C2)c1OC(F)F [PYX, Pyroxasulfone]
percentage of weed control, CHEAL [1]: 100%
control of common chickweed [7]: 22%
percentage of weed control, AVEFA [2, 18]: 98%
percentage of weed control, AVEFA [2, 19]: 96%
percentage of weed control, AVEFA [2, 20]: 100%
percentage of weed control, AVEFA [2, 21]: 99%
control of green foxtail [8]: 66%
control of jimsonweed [9]: 72%
control of red rice [10]: 39%
percentage of weed control, SETLU [4, 18]: 99%
percentage of weed control, SETLU [4, 19]: 100%
percentage of weed control, SETLU [4, 22]: 100%
percentage of weed control, BROSE [11]: 100%
percentage of weed control, ALOMY ([5]; (+)-BFL >95% e.e., rate g ai/ha by row: r6 62.5, r7 125, r8 62.5, r9 125, r10 222, r11 445, r12 22.5, r13 45, r14 62.5+62.5, r15 125+62.5, r16 62.5+125, r17 125+125, r18 62.5+222, r19 125+222, r20 62.5+445, r21 125+445, r22 62.5+22.5, r23 125+22.5, r24 62.5+45, r25 125+45): 100%
percentage of weed control, ALOMY [5, 20]: 100%
percentage of weed control, ALOMY [5, 21]: 99%
control of hemp sesbania [12]: 67%
control of common chickweed [13]: 67%
percentage of weed control, AMAPA [14]: 100%
control of wild oats [15]: 48%
percentage of weed control, SETVI [6, 18]: 97%
percentage of weed control, SETVI [6, 19]: 99%
percentage of weed control, SETVI [6, 22]: 99%
